From ChEMBL document CHEMBL1201862, “PubChem BioAssay data set” (2004)
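Exposure lasted 48 hours, with cells grown in 96-well plates and compounds tested at five concentrations. GI50 is the concentration that inhibits growth by half.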 The source made the active and inactive calls. Rule as the data show it: active = GI50 up to about 1.1 µM and inactive = higher.

Tests used:
Experiment in all cases: NCI anticancer screen, dose series, 48 h
SN12C = tested on: SN12C
OVCAR-5 = tested on: OVCAR-5
NCI-H23 = tested on: NCI-H23
SF-268 = tested on: SF-268
COLO 205 = tested on: COLO 205
SW-620 = tested on: SW-620
LOX IMVI = tested on: LOX IMVI
SNB-75 = tested on: SNB-75
HT-29 = tested on: HT-29
RPMI-8226 = tested on: RPMI-8226
K562 = tested on: K562
NCI-H460 = tested on: NCI-H460
MOLT-4 = tested on: MOLT-4
RXF 393 = tested on: RXF 393
TK-10 = tested on: TK-10
Malme-3M = tested on: Malme-3M
MDA-MB-231 = tested on: MDA-MB-231
MDA-MB-435 = tested on: MDA-MB-435
PC-3 = tested on: PC-3
DU-145 = tested on: DU-145

Measured: GI50

Cn1cc2ccccc2c1-c1nc(F)nc(F)n1
inactive: SN12C > 100 µM | OVCAR-5 > 100 µM | NCI-H23 > 100 µM | SF-268 > 100 µM | COLO 205 > 100 µM | SW-620 > 100 µM | LOX IMVI > 100 µM | SNB-75 92.3 µM | HT-29 > 100 µM | RPMI-8226 33 µM | K562 > 100 µM | NCI-H460 > 100 µM | MOLT-4 55 µM | RXF 393 > 100 µM | TK-10 > 100 µM | Malme-3M > 100 µM

OCC1CC2CC1C1(C2)OCCO1 (stereo not drawn)
inactive: SN12C > 100 µM | OVCAR-5 > 100 µM | NCI-H23 > 100 µM | SF-268 > 100 µM | COLO 205 > 100 µM | SW-620 > 100 µM | LOX IMVI > 100 µM | SNB-75 > 100 µM | HT-29 > 100 µM | RPMI-8226 > 100 µM | K562 > 100 µM | NCI-H460 > 100 µM | MOLT-4 > 100 µM | RXF 393 > 100 µM | TK-10 > 100 µM | Malme-3M > 100 µM

C[C@H]1[C@H](C)N(Cc2ccccc2)P(=O)(C(O)/C=C/c2ccccc2)N1Cc1ccccc1 (stereo partly drawn)
inactive: SN12C 4.6 µM | OVCAR-5 6.61 µM | MDA-MB-231 6.12 µM | NCI-H23 9.84 µM | SF-268 6.84 µM | COLO 205 6.64 µM | MDA-MB-435 4.33 µM | SW-620 9.25 µM | LOX IMVI 6.76 µM | SNB-75 6.95 µM | HT-29 5.24 µM | RPMI-8226 6.22 µM | K562 7.74 µM | PC-3 5.37 µM | NCI-H460 3.72 µM | MOLT-4 8.73 µM | RXF 393 6.24 µM | TK-10 7.01 µM | Malme-3M 5.58 µM

C1CSC(=[N+]2CC[N+](=C3SCCS3)CC2)S1
inactive: SN12C > 100 µM | OVCAR-5 > 100 µM | NCI-H23 > 100 µM | SF-268 > 100 µM | COLO 205 > 100 µM | SW-620 > 100 µM | LOX IMVI 39.2 µM | SNB-75 > 100 µM | HT-29 > 100 µM | RPMI-8226 > 100 µM | K562 > 100 µM | NCI-H460 > 100 µM | MOLT-4 44.9 µM | RXF 393 > 100 µM | TK-10 > 100 µM | Malme-3M > 100 µM

CN(C)C(=S)/N=c1\ss/c(=N\C(=S)N(C)C)n1-c1cccc(Cl)c1
inactive: SN12C > 100 µM | OVCAR-5 > 100 µM | NCI-H23 > 100 µM | SF-268 > 100 µM | COLO 205 > 100 µM | SW-620 > 100 µM | LOX IMVI > 100 µM | SNB-75 36.6 µM | HT-29 > 100 µM | RPMI-8226 > 100 µM | K562 > 100 µM | NCI-H460 > 100 µM | MOLT-4 > 100 µM | RXF 393 79.6 µM | TK-10 > 100 µM | Malme-3M > 100 µM

NC(=O)C(=Cc1ccc(C(O)P(=O)(O)O)cc1)C(N)=O (stereo not drawn)
inactive: SN12C > 100 µM | OVCAR-5 > 100 µM | NCI-H23 > 100 µM | COLO 205 > 100 µM | SW-620 > 100 µM | LOX IMVI > 100 µM | SNB-75 > 100 µM | HT-29 > 100 µM | RPMI-8226 > 100 µM | K562 > 100 µM | NCI-H460 > 100 µM | MOLT-4 > 100 µM | RXF 393 > 100 µM | TK-10 > 100 µM | Malme-3M > 100 µM

CCC1(CN(C)C)CC/C(=C\c2ccc(OC)cc2)C1=O (stereo not drawn)
inactive: SN12C > 100 µM | OVCAR-5 > 100 µM | NCI-H23 > 100 µM | SF-268 > 100 µM | COLO 205 80.7 µM | SW-620 > 100 µM | LOX IMVI > 100 µM | SNB-75 > 100 µM | HT-29 44.9 µM | RPMI-8226 17.4 µM | K562 40.9 µM | NCI-H460 > 100 µM | MOLT-4 3.14 µM | RXF 393 > 100 µM | TK-10 > 100 µM | Malme-3M > 100 µM

COc1ccc2c3c([nH]c(=O)c2c1C(=O)O)-c1ccccc1CC3
inactive: SN12C > 100 µM | OVCAR-5 > 100 µM | NCI-H23 > 100 µM | SF-268 > 100 µM | COLO 205 > 100 µM | SW-620 > 100 µM | LOX IMVI > 100 µM | SNB-75 > 100 µM | HT-29 > 100 µM | RPMI-8226 > 100 µM | K562 > 100 µM | NCI-H460 > 100 µM | MOLT-4 > 100 µM | RXF 393 > 100 µM | TK-10 > 100 µM | Malme-3M > 100 µM

C=CCOn1c(C=C)nc2c(C)cccc21
inactive: SN12C 3.63 µM | OVCAR-5 7.03 µM | MDA-MB-231 3.83 µM | NCI-H23 7.74 µM | SF-268 3.89 µM | COLO 205 1.95 µM | MDA-MB-435 1.63 µM | SW-620 3.2 µM | LOX IMVI 2.9 µM | SNB-75 3.59 µM | HT-29 3.36 µM | RPMI-8226 2.43 µM | K562 3.57 µM | PC-3 3.08 µM | NCI-H460 2.32 µM | MOLT-4 3.64 µM | TK-10 2.63 µM | Malme-3M 11.6 µM

Cc1ccc2c(O)cc(-c3ccc4ccccc4c3)nc2n1
inactive: SN12C 5.3 µM | OVCAR-5 19.3 µM | MDA-MB-231 14.3 µM | NCI-H23 4.41 µM | SF-268 6.9 µM | COLO 205 2.11 µM | SW-620 2.8 µM | LOX IMVI 5.14 µM | SNB-75 2.75 µM | HT-29 3.75 µM | RPMI-8226 4.48 µM | K562 3.41 µM | MOLT-4 4.45 µM | DU-145 15.5 µM | TK-10 8.45 µM | Malme-3M 4.46 µM

CC1=Nc2c(O)nc(S)nc2NC(c2ccc(Cl)c(Cl)c2)C1 (stereo not drawn)
inactive: SN12C 20.1 µM | OVCAR-5 > 100 µM | NCI-H23 19.4 µM | SF-268 32.2 µM | COLO 205 18 µM | SW-620 23.5 µM | LOX IMVI 20 µM | SNB-75 80.9 µM | HT-29 24.3 µM | RPMI-8226 > 100 µM | K562 > 100 µM | NCI-H460 67.8 µM | MOLT-4 > 100 µM | RXF 393 17.5 µM | TK-10 > 55.5 µM | Malme-3M > 89.7 µM

CCC1(Br)C(=O)NC(=O)N(C2CC(O)C(CO)O2)C1N=[N+]=[N-] (stereo not drawn)
inactive: SN12C > 100 µM | OVCAR-5 > 100 µM | NCI-H23 56.8 µM | SF-268 > 100 µM | COLO 205 > 100 µM | SW-620 > 100 µM | LOX IMVI > 100 µM | SNB-75 > 100 µM | HT-29 > 100 µM | RPMI-8226 > 100 µM | K562 > 100 µM | NCI-H460 > 100 µM | MOLT-4 > 100 µM | RXF 393 66.7 µM | TK-10 > 100 µM | Malme-3M > 100 µM

COC(=O)C(/C(=N/N)C(=O)Nc1ccc(C)c(C)c1)c1nc2ccc(Cl)cc2nc1O (stereo not drawn)
inactive: SN12C > 100 µM | OVCAR-5 > 100 µM | MDA-MB-231 > 100 µM | NCI-H23 > 100 µM | SF-268 > 100 µM | MDA-MB-435 > 100 µM | SW-620 > 100 µM | LOX IMVI > 100 µM | SNB-75 > 100 µM | HT-29 > 100 µM | RPMI-8226 > 100 µM | K562 > 100 µM | PC-3 > 100 µM | NCI-H460 > 100 µM | MOLT-4 > 100 µM | RXF 393 > 100 µM | TK-10 > 100 µM | Malme-3M > 100 µM

Cc1cc(NS(=O)(=O)c2ccc(Nc3c4ccccc4nc4c(C(=O)Nc5ccc(S(=O)(=O)N=C(N)N)cc5)cccc34)cc2)no1
inactive: SN12C > 100 µM | OVCAR-5 > 100 µM | NCI-H23 > 100 µM | SF-268 > 100 µM | COLO 205 > 100 µM | SW-620 > 100 µM | LOX IMVI > 100 µM | SNB-75 > 100 µM | HT-29 > 100 µM | RPMI-8226 > 100 µM | K562 > 100 µM | NCI-H460 > 100 µM | MOLT-4 > 100 µM | RXF 393 > 100 µM | TK-10 > 100 µM | Malme-3M > 100 µM

CCc1cccc2c3c([nH]c12)-c1ccccc1NC(=O)C3
inactive: SN12C 95.5 µM | OVCAR-5 > 100 µM | MDA-MB-231 5.66 µM | NCI-H23 > 100 µM | SF-268 48.2 µM | COLO 205 > 100 µM | MDA-MB-435 35.3 µM | SW-620 > 100 µM | LOX IMVI 72.9 µM | SNB-75 13.2 µM | HT-29 > 100 µM | RPMI-8226 67.5 µM | K562 19.4 µM | NCI-H460 > 100 µM | MOLT-4 8.89 µM | DU-145 > 100 µM | TK-10 > 100 µM

CC(CC(=O)Nc1ccc(NC(=O)CC(C)/N=N\C(N)=S)cc1)/N=N\C(N)=S (stereo not drawn)
inactive: SN12C > 100 µM | OVCAR-5 > 100 µM | NCI-H23 > 100 µM | SF-268 > 100 µM | COLO 205 > 100 µM | LOX IMVI 57.5 µM | SNB-75 > 100 µM | HT-29 > 100 µM | RPMI-8226 > 100 µM | K562 > 100 µM | NCI-H460 > 100 µM | MOLT-4 > 100 µM | RXF 393 > 100 µM | TK-10 > 100 µM | Malme-3M > 100 µM

Cc1ccc(C)c(N2C(=O)C(=O)C(c3nc4ccccc4s3)/C(=N/N)C2=O)c1 (stereo not drawn)
inactive: SN12C > 100 µM | OVCAR-5 > 100 µM | NCI-H23 > 80.5 µM | SF-268 > 100 µM | COLO 205 > 39.3 µM | SW-620 > 100 µM | LOX IMVI > 100 µM | SNB-75 > 100 µM | HT-29 > 100 µM | RPMI-8226 > 100 µM | K562 > 100 µM | NCI-H460 > 100 µM | MOLT-4 > 100 µM | RXF 393 > 100 µM | TK-10 > 100 µM | Malme-3M > 100 µM
